Marks after values point to notes of the source that are not given here.
Assays:
Assay type in all cases: cell-based, human
[1] = tested on: SFMC from patients with oJIA; experiment: Proliferative response of SFMC incubated with dnaJ and restimulated with autologous feeder cells plus peptide; details: for SI: Table 3, dnaJ 72 hr then restimulated with peptide, mean+SD
Method: Results, expressed as stimulation index (SI), are shown as mean+SD.
In order to identify possible relevant epitopes on the bacterial dnaJ protein, PBMC and SFMC of patients with oJIA were incubated for 72 hr with dnaJ, and restimulated with autologous feeder cells the in presence or absence of selected E. coli derived MHC class II binder peptides for 96 hr.
(§1) In order to evaluate whether human homologous peptides could be the target of cross-recognition leading to self reactivity, human peptides derived from regions of HSJ1, HDJ1, or HDJ2 having sequence homology with E. coli dnaJ were studied. SFMC of 14 patients with oJIA presenting a SI to the recombinant E. coli hsp dnaJ greater than 3 were restimulated for 96 hr with autologous cells in presence or absence of human peptide 2, 3, or 5, which are homologs of bacterial peptide 4; human peptide 20, 21, or 23, which are homologs of bacterial peptide 22; or human peptide 164, 167, or 176, which are homologs of bacterial peptide 174. SFMC proliferative responses, pro-inflammatory cytokine production, and anti-inflammatory IL-4 levels were overall similar between the peptides derived from human dnaJ proteins and the homologous bacterial peptides.
Results are expressed as SI or pg/ml (mean+SD). […]
To explore the possible correlation of clinical features with the development of peptide-induced immune modulation, oJIA patients were grouped according to the course of disease, including those with persistent disease (n=16), and those with extended disease (n=15) o-JIA. (FIG. 25).

[2] = tested on: SFMC from patients with oJIA; experiment: Cytokine production in culture supernatants of SFMC incubated with dnaJ and restimulated with autologous feeder cells plus peptide; details: for IFNγ / IL-6 / TNFα / IL-4 / IL-10: mean+SD; for production of IL-10 in patients with extended oligoarthritis: three patients with extended oligoarthritis at sampling; for IL-10 production detectable or not: culture supernatants of SFMC
Source text: Results are expressed as pg/ml (mean+SD).
Cytokine production to the same peptides was examined in culture supernatants of SFMC from patients with oJIA. […] SFMC from only one of 21 patients with oJIA produced detectable levels of the anti-inflammatory cytokine IL-10, and none produced detectable levels of IL-4.
as §1
Results are expressed as SI or pg/ml (mean+SD).

[3] = tested on: peripheral blood mononuclear cells (PBMC); experiment: Proliferative response (stimulation index) of PBMC stimulated with antigen for 96 hr; details: PBMC
[4] = tested on: synovial fluid mononuclear cells (SFMC) from patients with oJIA; experiment: Proliferative response (stimulation index) of SFMC stimulated with antigen for 96 hr; details: SFMC
[5] = Table 3, dnaJ 72 hr then restimulated with peptide
[6] = Table 1, dnaJ 72 hr then restimulated with peptide 72 hr

Substance	SI [1]	IFNγ [2, 5]	IL-6 [2, 5]	TNFα [2, 5]	IFNγ [2, 6] [pg/mL]	IL-4 [2, 6] [pg/mL]	IL-6 [2, 6] [pg/mL]	IL-10 [2, 6] [pg/mL]	TNFα [2, 6] [pg/mL]	further results
KDYYQTLGLARGASD (listed as Homo sapiens) [Peptide 3, human HDJ1 peptide, homologue of bacterial dnaJ peptide 4]	8.0 + 7.5	57.5 + 85.7 pg/ml	114.0 + 126 pg/ml	10.3 + 9.9 pg/ml						
DLQLAMAYSLSEMEA (listed as Homo sapiens) [Peptide 254, non-homologous human peptide (HSJ1)]										production of IL-10 in patients with extended oligoarthritis [2]: reduced production of IL-10
PINFAMAALGGEIEV (listed as Escherichia coli) [Peptide 268, bacterial (E. coli) dnaJ peptide]					34.7 ± 51.2	<0.39	45 ± 58.4	<3.9	17.2 ± 30.1	
YCEVPTNFAMAALGG [Peptide 264]					44.9 ± 55.8	<0.39	47.4 ± 61.2	<3.9	14.0 ± 29.3	
RTIVITSHPGQIVKH (listed as Homo sapiens) [Peptide 283, non-homologous human peptide (HDJ2)]										production of IL-10 in patients with extended oligoarthritis [2]: reduced production of IL-10
GRRITTRRIMENGQE (listed as Homo sapiens) [Peptide 176, human HSJ1 peptide, homologue of bacterial dnaJ peptide 174]	4.3 + 2.7	45.6 + 68.3 pg/ml	21.2 + 25.2 pg/ml	8.9 + 10.3 pg/ml						
QDYYEILGVSKTAEE (listed as Escherichia coli) [Peptide 4, bacterial (E. coli) dnaJ peptide]	4.1 + 3.33	30.8 + 52.4 pg/ml	60.2 + 60.3 pg/ml	6.0 + 4.5 pg/ml	38.5 ± 47.7	<0.39	49.8 ± 54.0	5.4 ± 6.9	9.8 ± 21.2	
ASYYEILDVPRSASA (listed as Homo sapiens) [Peptide 2, human HSJ1 peptide, homologue of bacterial dnaJ peptide 4]	5.9 + 5.7	51.3 + 72.4 pg/ml	41.7 + 43.8 pg/ml	23.2 + 26.8 pg/ml						
TTYYDVLGVKPNATQ (listed as Homo sapiens) [Peptide 5, human HDJ2 peptide, homologue of bacterial dnaJ peptide 4]	8.2 + 7.3*	69.5 + 105.2@ pg/ml	60.0 + 67.2 pg/ml	18.9 + 16.9 pg/ml						proliferative response compared with bacterial homolog ([1]; p<0.03): significantly greater; IFNγ production compared with bacterial homolog ([2]; p<0.05): significantly greater
KKAYRRKALQWHPDK (listed as Homo sapiens) [Peptide 20, human HSJ1 peptide, homologue of bacterial dnaJ peptide 22]	4.7 + 4.7	25.3 + 47.4 pg/ml	33.0 + 34.0 pg/ml	11.8 + 11.2 pg/ml						IL-10 production detectable or not [2]: did not induce detectable levels of IL-10
QKRAAYDQYGHAAFEQ (listed as Escherichia coli) [Peptide 61, bacterial (E. coli) dnaJ peptide]					31 ± 45.7	<0.39	47.6 ± 70.5	<3.9	22.6 ± 35.3	
EDLFMCMDIQLVEAL (listed as Homo sapiens) [Peptide 256, non-homologous human peptide (HDJ2)]										production of IL-10 in patients with extended oligoarthritis [2]: reduced production of IL-10
SKTLSVKIPGAVDTG (listed as Escherichia coli) [Peptide 209, bacterial (E. coli) dnaJ peptide]					41.3 ± 46.9	<0.39	56.6 ± 65.9	6.2 ± 5.8	15.3 ± 29.2	
KRAYRRQALRYHPDK (listed as Homo sapiens) [Peptide 21, human HDJ1 peptide, homologue of bacterial dnaJ peptide 22]	4.6 + 4.2	30.8 + 56.4 pg/ml	33.5 + 43.8 pg/ml	26.6 + 39.3 pg/ml						IL-10 production detectable or not [2]: did not induce detectable levels of IL-10
GDLYVQVQVKQHPIF (listed as Escherichia coli) [Peptide 242, bacterial (E. coli) dnaJ peptide]					41.2 ± 48.8	<0.39	34.1 ± 41.7	5.3 ± 6.6	14.2 ± 29.2	
RKAYKRLAMKYHPDR (listed as Escherichia coli) [Peptide 22, bacterial (E. coli) dnaJ peptide]	4.7 + 4.0	20.1 + 33.5 pg/ml	54.3 + 69.0 pg/ml	10.5 + 23.1 pg/ml	27 ± 38.0	<0.39	45.7 ± 57.7	4.4 ± 2.7	14.1 ± 26.8	IL-10 production detectable or not [2]: did not induce detectable levels of IL-10
QGFFAVQQTCPHCQG (listed as Escherichia coli) [Peptide 174, bacterial (E. coli) dnaJ peptide]	5.9 + 7.5	31.4 + 53.1 pg/ml	56.4 + 70 pg/ml	16.1 + 30.9 pg/ml	29.8 ± 44.6	<0.39	47.3 ± 61.2	4.2 ± 1.9	16.1 ± 31.5	
FRSVSTSTTFVQGRR (listed as Homo sapiens) [Peptide 164, human HSJ1 peptide, homologue of bacterial dnaJ peptide 174]	4.2 + 4.0	52.5 + 85.2 pg/ml	27.3 + 31.3 pg/ml	13.5 + 18.9 pg/ml						
PGMVQQIQSVCMECQ (listed as Homo sapiens) [Peptide 167, human HDJ2 peptide, homologue of bacterial dnaJ peptide 174]	3.9 + 3.1	38.3 + 61.2 pg/ml	23.0 + 22.3 pg/ml	7.3 + 7.3 pg/ml						
QAYEVLSDAKKRELYD (listed as Homo sapiens) [Peptide 50, non-homologous human peptide (HDJ2)]										production of IL-10 in patients with extended oligoarthritis [2]: reduced production of IL-10
KKAYRKLALKYHPDK (listed as Homo sapiens) [Peptide 23, human HDJ2 peptide, homologue of bacterial dnaJ peptide 22]	4.7 + 4.0	38.2 + 75 pg/ml	33.3 + 32.7 pg/ml	7.7 + 7.6 pg/ml						IL-10 production detectable or not [2]: did not induce detectable levels of IL-10
tetanus toxoid [TT, reference compound]										median SI [3]: 12.3; median SI [4]: 6.0
